We go through 15 compounds from patent US9527851B2, “Pyrrole six-membered heteroaryl ring derivative, preparation method thereof, and medicinal uses thereof” (Jiangsu Hengrui Medicine Co., Ltd., priority 2011, dated 2016).

One data set concerns the target JAK1 kinase (Homo sapiens (Human), UniProt P23458). Briefly: Assay for inhibiting JAK1 kinase (in vitro kinase assay, HRP anti-phosphotyrosine antibody/TMB absorbance). It is filed as biochemical. The note with it: 20 μM ATP, 50 minutes at room temperature; read-out: IC50 (JAK1/Bio). As to the method:
In vitro activity of compounds of the present invention for inhibiting JAK1 kinase was determined by the following method.
IC50 values of test compounds was calculated from the data of the test compounds in inhibiting the activity of JAK1 kinase at different concentrations.

Another data set has as its system T cells. Briefly: Proliferation inhibition assay on T cells (PBMC, anti-CD3, IL-2, ATPlite). It is filed as cell-based. The note with it: Homo sapiens, T-cell; IL-2 10 ng/mL, 72 hours. An excerpt: The following in vitro assay is to determine the activity of the compounds of the present invention for inhibiting the proliferation of T cells.
The activity is represented by the IC50 value.
The general procedures of the assay are given as follows: first, the PBMC cell line (purchased from Shanghai Blood Center) was centrifuged, the supernatant was removed, and the cells counted. […] Then, the cells were washed 3 times, resuspended, diluted to 2×10^6/mL, and then mixed with recombinant human IL-2 (purchased from Peprotech, Catalog Number: 200-02) to a concentration of 10 ng/mL, and cultured for another 3 days. The cells were washed again 3 times, and diluted to 5×10^5/mL. 80 μL of the cells were seeded in each well of a 96-well cell culture plate. […] To the control wells, 10 μL culture medium were added. The plate was placed in an incubator. After incubating for 1 hr, negative control wells were mixed with 10 μL of culture medium, and the rest of the wells were mixed with IL-2 to a concentration of 10 ng/mL, and incubated continuously for 72 hours. […] IC50 values were calculated from the data of inhibition rates at various concentrations of the test compounds.
(§1) The biological activity of the compounds of the present invention was tested by using the assay described above.

For the next data set, the target named is JAK2 kinase (Homo sapiens (Human), UniProt O60674). Put plainly: Assay for inhibiting JAK2 kinase (in vitro kinase assay, HRP anti-phosphotyrosine antibody/TMB absorbance). Format: biochemical. The following applies: 20 μM ATP, 50 minutes at room temperature; read-out: IC50 (JAK2/Bio). As to the method:
In vitro activity of compounds of the present invention for inhibiting JAK2 kinase was determined by the following method.

The target of a further data set is JAK3 kinase (Homo sapiens (Human), UniProt P52333). Put plainly: Assay for inhibiting JAK3 kinase (in vitro kinase assay, HRP anti-phosphotyrosine antibody/TMB absorbance). It is filed as biochemical. The following applies: 50 minutes at room temperature; read-out: IC50 (JAK3/Bio). As to the method:
In vitro activity of compounds of the present invention for inhibiting JAK3 kinase was determined by the following method.

Data set [1] can be described thus: Pharmacokinetics assay in rats, intragastric administration, plasma by LC/MS/MS. Format: in vivo, Sprague-Dawley (SD) rats. The following applies: both sexes, Sprague-Dawley, rat, plasma, po, SD rats, 10 mg/kg; for Vd/F: read-out: Apparent Distribution Volume Vz/F; for AUC: read-out: Area Under Curve AUC; for CL/F: read-out: Clearance CL/F; for half-life: read-out: Half-Life t½ (converted); for Cmax: read-out: Plasma Conc. Cmax. Put shortly:
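Fasted SD rats of both sexes dosed intragastrically at 10.0 mg/kg as a 1.0 mg/mL DMSO suspension; fed 2 h post-dose. Plasma sampled at various time points, protein-precipitated with methanol plus internal standard, and analyzed by LC-MS/MS.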

Data set [2] deals with human erythroid leukemia cell line TF-1. Put plainly: Proliferation inhibition assay on human erythroid leukemia cell line TF-1 mediated by IL-4 (Cell Counting Kit-8). Format: cell-based. The note with it: TF-1 cells, 10 ng/mL IL-4, 72 hours.
Excerpt: The following in vitro assay is to determine the activity of the compounds of the present invention for inhibiting the proliferation of human erythroid leukemia cell line TF-1.
The activity is represented by the IC50 value, which can not only reflect the activity of a test compound for inhibiting JAK2 and JAK3 kinase, but can also reflect the selectivity of a test compound for JAK2 and JAK3 kinase.
The general procedures of the assay are given as follows: first, the TF-1 cells (purchased from ATCC, Catalog number: CRL 2003) were seeded in a 96-well cell culture plate at a suitable cell concentration (8000 cells/mL medium), and 10 ng/mL IL-4 (Invitrogen, Catalog Number: PHC0044) were added to each well. Then 10× serial concentration gradient of test compounds solutions (10000, 1000, 100, 10, 1 and 0.1 nM) were prepared, and then the 10× compound solutions prepared above were added to the 96-well cell culture plate containing IL-4. After the cell plates were cultured continuously for 72 hours, the activity of the test compounds for inhibiting the cell proliferation was determined by using a Cell Counting Kit-8 (purchased from Dojindo, Catalog Number: CK04). IC50 values were calculated from the data of the inhibition rates at various concentrations of the test compounds.
as §1

JAK1 kinase, sequence (P23458 whole entry): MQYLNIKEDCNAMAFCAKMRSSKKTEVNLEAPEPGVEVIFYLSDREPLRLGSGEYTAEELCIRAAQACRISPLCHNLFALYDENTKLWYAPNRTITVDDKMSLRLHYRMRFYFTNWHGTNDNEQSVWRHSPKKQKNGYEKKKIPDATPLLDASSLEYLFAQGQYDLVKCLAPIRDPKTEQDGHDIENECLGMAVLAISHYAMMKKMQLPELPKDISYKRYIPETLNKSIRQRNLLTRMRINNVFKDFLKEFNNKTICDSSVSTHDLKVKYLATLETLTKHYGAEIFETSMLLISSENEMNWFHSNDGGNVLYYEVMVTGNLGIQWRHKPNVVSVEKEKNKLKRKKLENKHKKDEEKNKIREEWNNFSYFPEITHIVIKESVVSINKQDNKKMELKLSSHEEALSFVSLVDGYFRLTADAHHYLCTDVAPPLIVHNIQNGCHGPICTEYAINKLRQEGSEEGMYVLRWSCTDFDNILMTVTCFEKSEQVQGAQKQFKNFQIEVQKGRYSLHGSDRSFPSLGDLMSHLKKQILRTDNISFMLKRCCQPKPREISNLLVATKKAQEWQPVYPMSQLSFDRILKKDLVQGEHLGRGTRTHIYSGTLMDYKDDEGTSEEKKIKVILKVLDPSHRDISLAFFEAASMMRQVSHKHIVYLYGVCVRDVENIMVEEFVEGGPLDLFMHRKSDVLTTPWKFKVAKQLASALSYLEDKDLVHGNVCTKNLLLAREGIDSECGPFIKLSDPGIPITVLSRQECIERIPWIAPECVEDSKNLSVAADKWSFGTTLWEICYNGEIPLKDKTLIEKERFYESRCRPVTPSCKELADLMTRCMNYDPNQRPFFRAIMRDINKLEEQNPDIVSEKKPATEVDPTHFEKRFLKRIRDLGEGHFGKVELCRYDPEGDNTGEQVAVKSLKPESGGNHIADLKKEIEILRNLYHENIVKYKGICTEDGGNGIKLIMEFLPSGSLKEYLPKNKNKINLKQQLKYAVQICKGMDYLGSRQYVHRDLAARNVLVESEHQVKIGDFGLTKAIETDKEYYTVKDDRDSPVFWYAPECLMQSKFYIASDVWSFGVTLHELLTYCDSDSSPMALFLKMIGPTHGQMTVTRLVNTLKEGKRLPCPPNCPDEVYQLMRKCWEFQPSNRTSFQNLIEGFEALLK
JAK2 kinase, sequence (O60674 whole entry): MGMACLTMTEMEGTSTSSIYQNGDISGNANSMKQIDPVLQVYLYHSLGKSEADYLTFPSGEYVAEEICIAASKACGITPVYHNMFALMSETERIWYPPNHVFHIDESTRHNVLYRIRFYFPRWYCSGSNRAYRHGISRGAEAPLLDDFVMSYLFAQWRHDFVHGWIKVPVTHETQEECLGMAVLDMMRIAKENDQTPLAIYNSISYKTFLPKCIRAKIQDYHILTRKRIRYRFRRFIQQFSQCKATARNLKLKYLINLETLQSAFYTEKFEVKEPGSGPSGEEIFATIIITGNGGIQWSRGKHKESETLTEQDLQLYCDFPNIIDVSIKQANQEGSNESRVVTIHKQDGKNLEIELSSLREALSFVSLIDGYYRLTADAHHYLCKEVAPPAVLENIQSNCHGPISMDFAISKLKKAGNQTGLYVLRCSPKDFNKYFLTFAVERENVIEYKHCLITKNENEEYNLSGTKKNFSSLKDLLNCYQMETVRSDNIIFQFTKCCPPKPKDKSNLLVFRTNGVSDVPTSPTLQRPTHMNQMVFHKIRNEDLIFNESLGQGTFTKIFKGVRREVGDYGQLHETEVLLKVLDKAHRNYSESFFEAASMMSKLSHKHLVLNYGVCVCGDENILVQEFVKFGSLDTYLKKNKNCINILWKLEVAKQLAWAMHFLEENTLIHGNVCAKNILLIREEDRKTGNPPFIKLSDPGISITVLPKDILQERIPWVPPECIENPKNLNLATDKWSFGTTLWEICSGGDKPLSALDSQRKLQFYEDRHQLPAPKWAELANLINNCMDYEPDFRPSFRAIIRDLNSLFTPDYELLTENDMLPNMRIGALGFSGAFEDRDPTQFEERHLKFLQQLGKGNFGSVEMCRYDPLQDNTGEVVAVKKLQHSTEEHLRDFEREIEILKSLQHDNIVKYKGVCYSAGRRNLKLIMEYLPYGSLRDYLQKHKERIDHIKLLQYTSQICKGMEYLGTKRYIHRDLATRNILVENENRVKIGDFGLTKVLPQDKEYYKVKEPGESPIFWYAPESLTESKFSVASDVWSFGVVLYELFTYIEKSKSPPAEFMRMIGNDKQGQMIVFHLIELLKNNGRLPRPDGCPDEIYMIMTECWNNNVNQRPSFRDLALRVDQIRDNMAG
JAK3 kinase, sequence (P52333 whole entry): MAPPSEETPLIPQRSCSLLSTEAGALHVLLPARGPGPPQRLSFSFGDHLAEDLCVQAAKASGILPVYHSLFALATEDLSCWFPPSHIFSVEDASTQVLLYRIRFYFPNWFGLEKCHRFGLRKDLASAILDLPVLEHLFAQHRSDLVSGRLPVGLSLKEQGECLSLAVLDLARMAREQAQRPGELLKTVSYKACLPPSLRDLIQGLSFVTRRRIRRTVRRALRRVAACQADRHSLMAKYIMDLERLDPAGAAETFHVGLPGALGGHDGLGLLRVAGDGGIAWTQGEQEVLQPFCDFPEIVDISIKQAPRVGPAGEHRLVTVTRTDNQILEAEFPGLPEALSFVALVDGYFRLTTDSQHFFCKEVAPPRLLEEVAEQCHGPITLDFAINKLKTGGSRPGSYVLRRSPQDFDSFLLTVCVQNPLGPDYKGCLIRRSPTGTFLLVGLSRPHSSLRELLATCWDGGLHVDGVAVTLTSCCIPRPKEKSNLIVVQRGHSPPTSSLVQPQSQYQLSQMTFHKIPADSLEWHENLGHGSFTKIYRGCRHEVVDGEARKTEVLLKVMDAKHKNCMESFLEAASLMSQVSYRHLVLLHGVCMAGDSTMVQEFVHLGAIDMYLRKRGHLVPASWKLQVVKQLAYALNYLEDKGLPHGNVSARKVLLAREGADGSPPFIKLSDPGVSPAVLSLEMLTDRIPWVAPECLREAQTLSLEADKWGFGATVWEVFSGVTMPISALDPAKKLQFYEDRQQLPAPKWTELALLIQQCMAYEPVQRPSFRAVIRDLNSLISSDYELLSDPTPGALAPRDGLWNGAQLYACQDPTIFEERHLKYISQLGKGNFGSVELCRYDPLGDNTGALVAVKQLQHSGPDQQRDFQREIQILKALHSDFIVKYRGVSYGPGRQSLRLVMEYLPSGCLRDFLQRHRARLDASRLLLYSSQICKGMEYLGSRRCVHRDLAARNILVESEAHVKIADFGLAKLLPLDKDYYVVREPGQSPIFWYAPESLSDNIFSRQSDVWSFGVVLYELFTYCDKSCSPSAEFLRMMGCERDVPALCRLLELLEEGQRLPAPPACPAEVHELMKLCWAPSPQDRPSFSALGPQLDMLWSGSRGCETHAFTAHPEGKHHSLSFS

Take `CN(c1ncnc2[nH]ccc12)[C@@H]1C[C@H]2CN(C(=O)CO)C[C@@]2(C)C1` (racemic) [Example 14, 2-hydroxy-1-((3aS,5R,6aR/3aS,5R,6aR)-3a-methyl-5-(methyl(7H-pyrrolo[2,3-d]pyrimidin-4-yl)amino)hexahydrocyclopenta[c]pyrrol-2(1H)-yl)ethanone]: the results for the IC50 on JAK1 kinase and in the data set on T cells were 30 nM and 712 nM, respectively.
As to `CN(c1ncnc2[nH]ccc12)[C@H]1C[C@@H]2CN(C(=O)CO)C[C@@H]2C1` [Example 6, 2-Hydroxy-1-((3aR,5S,6aS)-5-(methyl(7H-pyrrolo[2,3-d]pyrimidin-4-yl)amino)hexahydrocyclopenta[c]pyrrol-2(1H)-yl)ethanone], the IC50 on JAK1 kinase worked out at 5 nM. The IC50 at JAK2 kinase came out at 45 nM. In addition, the IC50 on JAK3 kinase amounted to 11 nM. Further, in data set [1], the Vd/F came out at 34.5 ± 21 L/kg, the AUC is 2210 ± 1470 ng·h/mL, the CL/F was found to be 110 ± 71 mL/min/kg and the half-life was 4.01 ± 1.52 h. Moreover, the Cmax in data set [1] stood at 1230 ± 549 ng/mL. Also, the MRT in data set [1] (read-out: Mean Residence Time MRT) came to 2.19 ± 0.6 h.
Turning to `CN(c1ncnc2[nH]ccc12)[C@H]1C[C@H]2CNC(=O)C[C@H]2C1` [Example 40, (4aR,6R,7aR)-6-(Methyl(7H-pyrrolo[2,3-d]pyrimidin-4-yl)amino) hexahydro-1H-cyclopenta[c]pyridin-3(2H)-one], on JAK2 kinase, the IC50 worked out at 23 nM. Moreover, the IC50 in data set [2] came out at 399 nM. Further, in data set [1], the Vd/F came to 6.99 ± 3.39 L/kg, the AUC came out at 5230 ± 1170 ng·h/mL, the CL/F was determined as 33.2 ± 7.7 mL/min/kg and the half-life was 2.72 ± 1.82 h. In data set [1], the Cmax worked out at 1520 ± 317 ng/mL.
In the case of `CN(c1ncnc2[nH]ccc12)[C@H]1C[C@@H]2CN(C(=O)Nc3nc(CO)ns3)C[C@@H]2C1` [Example 50, (3aR,5S,6aS)—N-(3-(Hydroxymethyl)-1,2,4-thiadiazol-5-yl)-5-(methyl(7H-pyrrolo[2,3-d]pyrimidin-4-yl)amino)hexahydrocyclopenta[c]pyrrole-2(1H)-carboxamide], the figures for the IC50 on JAK1 kinase, on JAK2 kinase and on JAK3 kinase were 0.5 nM, 7 nM and 201 nM, respectively.
The like results for `CN(c1ncnc2[nH]ccc12)[C@H]1C[C@@H]2CN(CC(F)(F)F)C[C@@H]2C1` [Example 56, N-methyl-N-((3aR,5S,6aS)-2-(2,2,2-trifluoroethyl)octahydrocyclopenta[c]pyrrol-5-yl)-7H-pyrrolo[2,3-d]pyrimidin-4-amine] were, in that order, 11 nM, 32 nM and 75 nM.
For `CN(c1ncnc2[nH]ccc12)[C@@H]1C[C@@H]2CN(CC#N)C[C@@H]2C1` [Example 69, 2-((3aR,5R,6aS)-5-(methyl(7H-pyrrolo[2,3-d]pyrimidin-4-yl)amino)hexahydrocyclopenta[c]pyrrol-2(1H)-yl)acetonitrile] the same measures were 5 nM, 4 nM and 20 nM.
Take `CN(c1ncnc2[nH]ccc12)[C@H]1C[C@@H]2CN(C(=O)[C@H](O)C(F)(F)F)C[C@@H]2C1` [Example 94, (S)-3,3,3-trifluoro-2-hydroxy-1-((3aR,5R,6aS)-5-(methyl(7H-pyrrolo[2,3-d]pyrimidin-4-yl)amino)hexahydrocyclopenta[c]pyrrol-2(1H)-yl)propan-1-one]: the IC50 in data set [2] (Homo sapiens) turned out to be 152 nM; with T cells, 127 nM.
On to `CN(c1ncnc2[nH]ccc12)[C@H]1C[C@@H]2CN(C(=O)C(O)C(F)(F)F)C[C@@H]2C1` (stereo partly drawn) [Example 97, 3,3,3-trifluoro-2-hydroxy-1-((3aR,5S,6aS)-5-(methyl(7H-pyrrolo[2,3-d]pyrimidin-4-yl)amino)hexahydrocyclopenta[c]pyrrol-2(1H)-yl)propan-1-one], for which the IC50 at JAK3 kinase came out at 110 nM.
As to `CN(c1ncnc2[nH]ccc12)[C@H]1C[C@@H]2CN(C(=O)OCC(F)(F)F)C[C@@H]2C1` [Example 111, (3aR,5S,6aS)-2,2,2-trifluoroethyl 5-(methyl(7H-pyrrolo[2,3-d]pyrimidin-4-yl)amino)hexahydrocyclopenta[c]pyrrole-2(1H)-carboxylate], the IC50 came out at 96 nM on JAK1 kinase, 146 nM on JAK2 kinase and 101 nM at JAK3 kinase.
For `CN(c1ncnc2[nH]cc(F)c12)[C@H]1C[C@@H]2CN(C(=O)CO)C[C@@H]2C1` [Example 128, 1-((3aR,5S,6aS)-5-((5-fluoro-7H-pyrrolo[2,3-d]pyrimidin-4-yl)(methyl)amino)hexahydrocyclopenta[c]pyrrol-2(1H)-yl)-2-hydroxyethanone], the IC50 on JAK1 kinase was 13 nM. Further, on JAK3 kinase, the IC50 was found to be 4 nM. In data set [1], the Vd/F turned out to be 11.4 ± 4.15 L/kg, the area under the curve (AUC) amounted to 2320 ± 1030 ng·h/mL, the CL/F worked out at 84.3 ± 37.8 mL/min/kg and the half-life is 1.62 ± 0.28 h. In addition, the Cmax in data set [1] worked out at 1420 ± 150 ng/mL.
Consider `CN(c1ncnc2[nH]c(F)cc12)[C@H]1C[C@@H]2CN(C(=O)CO)C[C@@H]2C1` [Example 129, 1-((3aR,5S,6aS)-5-((6-fluoro-7H-pyrrolo[2,3-d]pyrimidin-4-yl)(methyl)amino)hexahydrocyclopenta[c]pyrrol-2(1H)-yl)-2-hydroxyethanone], for which the values for the IC50 on JAK1 kinase and at JAK3 kinase were 36 nM and 17 nM, respectively.
As to `CN(C[C@H]1[C@@H]2CN(C(=O)OC(C)(C)C)C[C@@H]21)c1ncnc2[nH]ccc12` [Example 133, (1R,5S,6S)-tert-butyl 6-((methyl(7H-pyrrolo[2,3-d]pyrimidin-4-yl)amino)methyl)-3-azabicyclo[3.1.0]hexane-3-carboxylate], the IC50 at JAK3 kinase was found to be 90 nM.
As for `CN(c1ncnc2[nH]ccc12)[C@H]1C[C@H]2CNC(=O)C[C@H]2C1` [Example 147, (4aR,6R,7aR)-6-(methyl(7H-pyrrolo[2,3-d]pyrimidin-4-yl)amino)hexahydro-1H-cyclopenta[c]pyridin-3(2H)-one], the IC50 at JAK2 kinase came out at 5 nM; in data set [2] it was 15 nM.
Regarding `CN(c1ncnc2[nH]ccc12)[C@@H]1CC2CNC(=O)CC2C1` (stereo partly drawn) [Example 148, (6S)-6-(methyl(7H-pyrrolo[2,3-d]pyrimidin-4-yl)amino)hexahydro-1H-cyclopenta[c]pyridin-3(2H)-one], the IC50 on JAK2 kinase was found to be 23 nM. The IC50 in data set [2] (Homo sapiens, TF-1, 72 h) was found to be 399 nM. Also, in data set [1], the Vd/F stood at 6.99 ± 3.39 L/kg, the AUC was found to be 5230 ± 1170 ng·h/mL, the CL/F was 33.2 ± 7.7 mL/min/kg and the half-life was 2.72 ± 1.82 h. The Cmax in data set [1] amounted to 1520 ± 317 ng/mL.
For the compound `CC(C)C(=O)N1CC[C@H]2C[C@@H](N(C)c3ncnc4[nH]ccc34)C[C@H]2C1` [Example 151, 2-methyl-1-((4aS,6R,7aR)-6-(methyl(7H-pyrrolo[2,3-d]pyrimidin-4-yl)amino)hexahydro-1H-cyclopenta[c]pyridin-2(3H)-yl)propan-1-one], the IC50 on JAK1 kinase was determined as 106 nM; on JAK2 kinase it was 127 nM; on JAK3 kinase, 203 nM.
